From article PMC7334220, “Diamond Blackfan anemia is mediated by hyperactive Nemo-like kinase” (Nature Communications, 2020)
Where two headings read alike, the source gives them in different places.

Key:
[1] = system: RPS19-insufficient cord blood CD34+ HSPCs; assay: In vitro differentiation of cord blood CD34+ HSPCs transduced with shRNA against RPS19 (cell count and flow cytometry); assay type: cell-based, human
Method: Cells were plated at 2000 cell per well in 96-well plates in the presence or absence of doxycycline. Relative amounts of live cells were quantified by luciferase-based Cell titer-Glo® assay. b TGFβR1 inhibitors were assessed for their ability to increase cell expansion in RPS19-insuffiency. As a control, vehicle alone (no doxycycline) is represented at the far left while all other samples were treated with doxycycline to induce RPS19-insufficiency. c Kit^+ erythroid progenitors were grown in the absence of doxycycline and in the presence of 10 µM of indicated compound. In addition, cells were treated with 5 ng/ml of TGFβ1 for 5 days before being subjected to Cell titer-Glo® assay. d Differentiating cord blood CD34^+ progenitors were transduced with shRNA against luciferase or RPS19 and treated with inhibitors at working concentrations for TGFβ inhibition every three days. […] Cells were counted and CD235^+ erythroid (i and iii) and CD11b^+ myeloid cell (ii and iv) percentages were determined by flow cytometry. The number of erythroid or myeloid cells is expressed as a percentage of the number of that lineage with no cytokine or drug treatment. Bars represent means ± SD with individual data points overlaid. n = 3 independent experiments performed in triplicate. Statistics: two-tailed Student’s t test, significant *p < 0.05. Also see Supplementary Fig. 1. Erythroid expansion is depicted in red while myeloid is in purple. Source data are provided as a Source Data file.
Cells were counted and assessed for cell surface expression of CD235. b Lin-Kit^+ hematopoietic progenitors were obtained from three mouse embryos expressing tetracycline-inducible shRNA against RPS19 at day E14.5 or three untreated mice, and thee mature RPL11^+/+ or three mature RPL11^+/lox mice treated with tamoxifen for eight weeks. […] Values were expressed as a percentage relative to untreated controls. c, d Intracellular phosphorylation of NLK at Thr298 was determined by capillary electrophoresis using the Peggy Sue™ Automated Western blotting platform. After lysis, 4 µg of protein from the CD235^+ population was probed against pThr298-NLK and normalized to GAPDH. […] After counting the total cell population, the ratio of CD235^+ erythroblasts was determined by flow cytometry and number of CD235^+ erythroblasts calculated. This was expressed as a percentage of the average number of erythroid cells present in untreated healthy controls. f NLK phosphorylation was assessed by capillary electrophoresis as above. Bars represent means ± SD with individual data points overlaid. […] Statistics: two-tailed Student’s t test, significant *p < 0.05. Also see Supplementary Fig. 8. Source data are provided as a Source Data file.
Primary human CD34^+ hematopoietic stem and progenitor cells were purified from cord or peripheral blood (New York Blood Center) or from human fetal liver tissue (Advanced Bioscience Resources and University of California, Los Angeles Center for AIDS Research) by using magnetic-activated cell sorting (Miltenyi Biotec) and were cryopreserved. Upon thawing, cells were cultured in x-Vivo15 media (Lonza) containing 10% fetal bovine serum, fms-related tyrosine kinase 3 (50 ng/ml), […] (50 ng/ml), interleukin-3 (IL-3; 20 ng/ml), interleukin-6 (IL-6; 20 ng/ml), and stem cell factor (50 ng/ml). When applied, TGFβ1 was added at 5 ng/ml. Kp53A1 cells were obtained from Javier Leon and cultured in DMEM supplemented with 10% fetal bovine serum at 37 or 32 °C.

NLK = target: T1, NLK (Homo sapiens, UniProt Q9UBE8); assay: NLK in vitro kinase assay (NLK, c-Myb, Raptor substrates); assay type: biochemical
T1 construct: NLK, p38, or ALK5 for in vitro kinase assays were immunopurified from Kp53A1 cells; endogenous in cells; immunoprecipitated with anti-NLK (Abcam AB97642)
T1 sequence (Q9UBE8 1-527): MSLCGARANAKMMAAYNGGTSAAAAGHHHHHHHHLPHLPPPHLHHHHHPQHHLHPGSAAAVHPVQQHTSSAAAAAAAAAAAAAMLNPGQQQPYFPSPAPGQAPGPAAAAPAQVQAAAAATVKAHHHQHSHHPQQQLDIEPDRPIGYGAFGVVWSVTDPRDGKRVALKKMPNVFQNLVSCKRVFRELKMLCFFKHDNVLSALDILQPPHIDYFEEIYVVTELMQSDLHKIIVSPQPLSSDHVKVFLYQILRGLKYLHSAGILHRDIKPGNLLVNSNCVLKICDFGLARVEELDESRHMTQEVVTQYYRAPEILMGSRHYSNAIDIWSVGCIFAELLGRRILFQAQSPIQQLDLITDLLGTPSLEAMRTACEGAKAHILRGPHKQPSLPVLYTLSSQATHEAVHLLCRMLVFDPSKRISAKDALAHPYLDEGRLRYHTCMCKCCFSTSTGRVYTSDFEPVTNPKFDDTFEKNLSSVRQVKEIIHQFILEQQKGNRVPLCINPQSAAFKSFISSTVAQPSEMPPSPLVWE
Method: Equivalent protein was loaded between samples. b—blue Transduced progenitors were differentiated for 15 days and sorted for surface expression of CD235 + , CD41 + and CD11b + population NLK mRNA was assessed by qRT-PCR. c Control and shRPS19-transduced CB progenitors were differentiated for 10 days prior to separation into CD71^+ and CD71^- populations and assessed for pThr298-NLK phosphorylation by Western blot analysis. d—purple CB CD34 + progenitors were transduced with shRNA against luciferase (shLuc) or RPS19 (shRPS19) along with CFP-NLK and YFP-NLK and differentiated for 10 days. NLK dimerization was quantified by FRET. e—left panel NLK was immunoprecipitated from transduced differentiating CD71^+ and CD71^- populations after 10 days, and incubated in the presence of ATP, Mg^2+ and dephosphorylated NLK (i orange), c-Myb (ii—blue) and Raptor (iii—green) for 30 min at 37 °C. Phosphorylation was detected by a combination of anti^-phosphoserine-HRP and anti-phosphothreonine-HRP antibodies, or mouse anti-phosphoserine and anti-mouse-HRP antibodies. e—right panel For comparison, NLK in vitro kinase activity was assessed from CD235^+, CD41^+ and CD11b^+ populations enriched after identical treatments. f A panel of eight small molecule p38 inhibitors were titrated into in vitro kinase assays in the presence of activated NLK or p38 from stimulated Kp53A1 cells. The IC50 for NLK and p38 for each compound was calculated. The data are represented diagrammatically with IC50 values represented as vertical lines along a concentration gradient for NLK and p38. Kinase activity is represented as blue and the extent of inhibition is depicted in white. […] Bars represent means ± SD with individual data points overlaid. n = 3 independent experiments performed in triplicate.Statistics: two-tailed Student’s t test, significant *p < 0.05. Also see Supplementary Figs. 3 and 4. Source data are provided as a Source Data file. […] Inhibitors were added to cells at indicated concentrations with a final DMSO concentration of 0.5%. […] IC50 calculations were obtained using 8–9 concentrations of compound and generated using the IC50 Calculator software by AAT Bioquest®. NLK, p38, or ALK5 for in vitro kinase assays were immunopurified from Kp53A1 cells. NLK activation was induced by incubating cells at 32° for 24-48 h, p38 by stimulating with IL-3, IL-6, SCF, and Epo at the same concentrations used for differentiating erythroid progenitors.
For NLK kinase analysis, cultures were treated as indicated and lysed for 30 min at 4 °C in 750 μl of kinase lysis buffer (50 mM Tris [pH 7.4], 5 mM EDTA, 250 mM NaCl, 0.1% Triton X-100, 50 mM NaF, 0.1 trypsin inhibitor unit of aprotinin per ml, 50 μg of phenylmethylsulfonyl fluoride per ml, 100 μM sodium vanadate, 1 μg of leupeptin per ml). For TGFβR1 kinase analysis, cells were lysed in membrane kinase buffer (10 mM Tris-HCl (pH8.0), 140 mM NaCl, 300 mM KCl, 0.5% Triton X-100, and 0.5% sodium deoxycholate with complete protease inhibitor cocktail (Roche)). Extracts were clarified, and equivalent protein was incubated overnight at 4 °C with antibody (NLK: #AB97642; Abcam, TGFβR1: V22; Santa Cruz Biotechnology). Immune complexes were collected with Catch and Release® V2.0 Reversible Immunoprecipitation System and diluted in kinase buffer (25 mM Tris [pH 7.4], 10 mM MgCl2, 1 mM dithiothreitol). When cell numbers were limiting, NLK activity was amplified by adding 0.5 µg dephosphorylated NLK prior to performing kinase reaction. 50 μl of kinase buffer containing NLK or TGFβR1 sample and 5 μM ATP was incubated in the presence of biotinylated substrate (NLK, c-Myb, or Raptor for NLK and Smad2 or Smad3 for TGFβR1) immobilized on streptavidin-coated 96-well plates.

p38 = settings: reported, no reference given; read-out: reported IC50 against p38; cited from earlier work
[2] = system: ribosome-competent cord blood CD34+ HSPCs (shLuc); assay: In vitro differentiation of cord blood CD34+ HSPCs transduced with control shRNA (luciferase); assay type: cell-based, human; settings: ribosome-competent cells; 5 ng/ml TGFβ1; 5 µM compound; 15 days; Fig. 1e
Method: Lin-Kit^+ fetal liver cells were obtained from mouse embryos expressing tet-on shRNA against RPS19, at day E14.5-15.5. Cells were plated at 2000 cell per well in 96-well plates in the presence or absence of doxycycline. Relative amounts of live cells were quantified by luciferase-based Cell titer-Glo® assay. b TGFβR1 inhibitors were assessed for their ability to increase cell expansion in RPS19-insuffiency. As a control, vehicle alone (no doxycycline) is represented at the far left while all other samples were treated with doxycycline to induce RPS19-insufficiency. c Kit^+ erythroid progenitors were grown in the absence of doxycycline and in the presence of 10 µM of indicated compound. In addition, cells were treated with 5 ng/ml of TGFβ1 for 5 days before being subjected to Cell titer-Glo® assay. d Differentiating cord blood CD34^+ progenitors were transduced with shRNA against luciferase or RPS19 and treated with inhibitors at working concentrations for TGFβ inhibition every three days. […] Cells were counted and CD235^+ erythroid (i and iii) and CD11b^+ myeloid cell (ii and iv) percentages were determined by flow cytometry. The number of erythroid or myeloid cells is expressed as a percentage of the number of that lineage with no cytokine or drug treatment. […]
Fig. 8 NLK inhibition increases expansion of erythroid progenitors from human and murine models of DBA. a Human cord blood CD34^+ progenitors were transduced with lentivirus co-expressing GFP with shRNA against luciferase (shLuc), RPS19 (shRPS19), or RPL11 (shRPL11). […] Cells were counted and assessed for cell surface expression of CD235. b Lin-Kit^+ hematopoietic progenitors were obtained from three mouse embryos expressing tetracycline-inducible shRNA against RPS19 at day E14.5 or three untreated mice, and thee mature RPL11^+/+ or three mature RPL11^+/lox mice treated with tamoxifen for eight weeks. […] Values were expressed as a percentage relative to untreated controls. c, d Intracellular phosphorylation of NLK at Thr298 was determined by capillary electrophoresis using the Peggy Sue™ Automated Western blotting platform. […]

[3] = Fig. 3f, activated NLK from stimulated Kp53A1 cells, read-out: NLK Observed IC50

Structure (SMILES): Cc1cccc(-c2nn3c(c2-c2ccnc4ccc(C(N)=O)cc24)CCC3)n1 [Galunisertib]
- increase of erythropoiesis in RPS19-insufficiency compared with control treated cells ([1]; CD235+ erythroid cells after 15 days, inhibitors at working concentrations for TGFβ inhibition every three days, Fig. 1d): 3.2 fold
- IC50 (NLK; Supplementary Fig. 1e, read-out: IC50 against NLK): 1340 nM
- inhibition of NLK-mediated phosphorylation of NLK substrates NLK, c-Myb and Raptor (NLK; added to activated NLK in vitro, Supplementary Fig. 1c): 40–45%
- IC50 (p38): 405 nM

Structure (SMILES): C[S+]([O-])c1ccc(-c2nc(-c3ccncc3)c(-c3ccc(F)cc3)[nH]2)cc1 (centres unmarked) [SB203580]
- erythroid expansion (CD235) in RPS19-insufficient HSPCs ([1]; 12 days, recommended concentrations, rebuttal Experiment 12): significantly increased
- improvement of erythropoiesis (comparison of SD208 with p38 inhibitors) ([1]; CD235+, 12 days, recommended concentrations, Supplementary Fig. 2b): improved erythropoiesis

Structure (SMILES): Cn1c(NC[C@@H](N)Cc2ccccc2)nc(-c2ccncc2)c(-c2ccc3ccccc3c2)c1=O [AMG-548]
- IC50 (NLK; [3]): 3.6 nM

Structure (SMILES): Cc1cccc(-c2[nH]c(C(C)(C)C)nc2-c2ccc3nccnc3c2)n1 [SB525334]
- erythropoiesis, % of controls, in TGFβ-treated cells ([1]; RPS19-insufficient cells, 5 ng/ml TGFβ1, 5 µM, Fig. 1e.iii): 128.6%
- effect on erythropoiesis of cells not treated with TGFβ ([1]; RPS19-insufficient cells, 5 µM, Fig. 1e.iii): did not influence
- restoration of erythroid and myeloid expansion of TGFβ-treated cells [2]: restored

Structure (SMILES): CCc1nc(-c2cccc(C)c2)c(-c2ccnc(NC(=O)c3ccccc3)c2)s1 [TAK-715]
- IC50 (NLK; [3]): 9300 nM
